These results are taken from patent US8003658B2, “Quinazoline derivatives for inhibiting cancer cell growth and method for the preparation thereof” (Hanmi Holdings Co., Ltd., priority 2004, dated 2011).

As usually defined, the IC50 is the concentration that gives 50% inhibition.

One experiment has as its system A431 (ATCC: CRL-1555). As to the kind of experiment: Test of cancer cell growth inhibition (SRB), A431. Conditions: read-out: IC50 A431.
In a further experiment the test system is SK-Br3 (ATCC: HTB-30). In words: Test of cancer cell growth inhibition (SRB), SK-Br3. As to conditions: Homo sapiens, SK-BR-3, 72 h, read-out: IC50 SK-Br-3.
Where [1] appears, read: EGFR overexpressed A431, 72 hours, SRB.

SMILES strings stand for the structures. Like-named read-outs stand apart in the source and are kept apart here.

With `C=CC(=O)NCCC(=O)N(CC)c1ccc2ncnc(Nc3ccc(OCc4cccc(F)c4)c(Cl)c3)c2c1` [Example 140, N-[2-({4-[3-chloro-4-(3-fluoro-benzyloxy)-phenylamino]-quinazolin-6-yl}-ethyl-carbamoyl)-ethyl]-acrylamide], the IC50 in the experiment on A431 (ATCC: CRL-1555) (Homo sapiens, A-431, 72 h) came out at 0.102 µM; in the experiment on SK-Br3 (ATCC: HTB-30) it was 0.102 µM.

In the case of `C=CC(=O)NCCC(=O)N(CCCN(C)C)c1ccc2ncnc(Nc3ccc(OCc4cccc(F)c4)c(Cl)c3)c2c1` [Example 141-4, N-{2-[{4-[3-chloro-4-(3-fluoro-benzyloxy)-phenylamino]-quinazolin-6-yl}-(3-dimethylamino-propyl)-carbamoyl]-ethyl}-acrylamide], the 50% inhibitory concentration (IC50) in the experiment on A431 (ATCC: CRL-1555) (Homo sapiens, A-431, 72 h) came out at 1.33 µM; in the experiment on SK-Br3 (ATCC: HTB-30), 0.804 µM.

Turning to `C=CC(=O)NCCC(=O)Nc1ccc2ncnc(Nc3ccc(OCc4cccc(C)n4)c(Cl)c3)c2c1` [Example 144, N-(2-{4-[3-chloro-4-(6-methyl-pyridin-2-ylmethoxy)-phenylamino]-quinazolin-6-ylcarbamoyl}-ethyl)-acrylamide], the IC50 in the experiment on A431 (ATCC: CRL-1555) (Homo sapiens, A-431, 72 h) was 0.073 µM; with SK-Br3 (ATCC: HTB-30) it was 0.008 µM.

Consider `C=CC(=O)N1C[C@H](OC(C)=O)C[C@H]1C(=O)Nc1ccc2ncnc(Nc3ccc(OCc4ccccn4)c(Cl)c3)c2c1` [Example 148, (3R,5S)-acetic acid 1-acryloyl-5-{4-[3-chloro-4-(pyridin-2-ylmethoxy)-phenylamino]-quinazolin-6-ylcarbamoyl}-pyrrolidin-3-ylester], for which the IC50 in the experiment on A431 (ATCC: CRL-1555) (Homo sapiens, A-431, 72 h) stood at 0.034 µM; in the experiment with SK-Br3 (ATCC: HTB-30), 0.004 µM.

For the compound `C=CC(=O)N1C[C@H](O)C[C@H]1C(=O)Nc1ccc2ncnc(Nc3ccc(OCc4ccccn4)c(Cl)c3)c2c1` [Example 149, (2S,4R)-1-acryloyl-4-hydroxyl-pyrrolidine-2-carboxylic acid {4-[3-chloro-4-(pyridin-2-ylmethoxy)-phenylamino]-quinazolin-6-yl}-amide], the half-maximal inhibitory concentration (IC50) in the experiment on A431 (ATCC: CRL-1555) (Homo sapiens, A-431, 72 h) amounted to 0.054 µM; in the experiment on SK-Br3 (ATCC: HTB-30), 0.002 µM.

Regarding `C=CC(=O)N1C[C@H](SCC)C[C@H]1C(=O)Nc1ccc2ncnc(Nc3ccc(OCc4ccccn4)c(Cl)c3)c2c1` [Example 150, (2S,4R)-1-acryloyl-4-ethylsulfanyl-pyrrolidine-2-carboxylic acid {4-[3-chloro-4-(pyridin-2-ylmethoxy)-phenylamino]-quinazolin-6-yl}-amide], the concentration for half-maximal inhibition (IC50) in the experiment with A431 (ATCC: CRL-1555) (Homo sapiens, A-431, 72 h) turned out to be 0.036 µM; with SK-Br3 (ATCC: HTB-30), 0.006 µM.

Turning to `C=CC(=O)N1C[C@H](N(C)C)C[C@H]1C(=O)Nc1ccc2ncnc(Nc3ccc(OCc4ccccn4)c(Cl)c3)c2c1` [Example 151, (2S,4R)-1-acryloyl-4-dimethylamino-pyrrolidine-2-carboxylic acid {4-[3-chloro-4-(pyridin-2-ylmethoxy)-phenylamino]-quinazolin-6-yl}-amide], the IC50 turned out to be 0.105 µM with A431 (ATCC: CRL-1555) (Homo sapiens, A-431, 72 h) and 0.003 µM in the experiment on SK-Br3 (ATCC: HTB-30).

As to `C=CC(=O)N1CCC[C@H]1C(=O)Nc1ccc2ncnc(Nc3ccc(OCc4cccnc4)c(Cl)c3)c2c1` [Example 152, (2S)-1-acryloyl-pyrrolidine-2-carboxylic acid {4-[3-chloro-4-(pyridin-3-ylmethoxy)-phenylamino]-quinazolin-6-yl}-amide], the IC50 in the experiment with A431 (ATCC: CRL-1555) (Homo sapiens, A-431, 72 h) was found to be 0.166 µM; in the experiment on SK-Br3 (ATCC: HTB-30), 0.004 µM.

As to `C=CC(=O)N1CCC[C@H]1C(=O)Nc1ccc2ncnc(Nc3ccc(OCc4ccncc4)c(Cl)c3)c2c1` [Example 153, (2S)-1-acryloyl-pyrrolidine-2-carboxylic acid {4-[3-chloro-4-(pyridin-4-ylmethoxy)-phenylamino]-quinazolin-6-yl}-amide], the IC50 in the experiment with A431 (ATCC: CRL-1555) (Homo sapiens, A-431, 72 h) worked out at 0.394 µM; in the experiment with SK-Br3 (ATCC: HTB-30), 0.029 µM.

On to `C=CC(=O)N1CCCC1CC(=O)Nc1ccc2ncnc(Nc3ccc(OCc4ccccn4)c(Cl)c3)c2c1` (stereo not shown) [Example 154, 2-(1-acryloyl-pyrrolidin-2-yl)-N-{4-[3-chloro-4-(pyridin-2-ylmethoxy)-phenylamino]-quinazolin-6-yl}-acetamide], for which the IC50 was 0.086 µM with A431 (ATCC: CRL-1555) (Homo sapiens, A-431, 72 h) and 0.005 µM with SK-Br3 (ATCC: HTB-30).

On to `C=CC(=O)N1CCC(C(=O)Nc2ccc3ncnc(Nc4ccc(OCc5ccccn5)c(Cl)c4)c3c2)C1` (stereo not shown) [Example 155, 1-acryloyl-pyrrolidine-3-carboxylic acid {4-[3-chloro-4-(pyridin-2-ylmethoxy)-phenylamino]-quinazolin-6-yl}-amide], for which the IC50 with A431 (ATCC: CRL-1555) (setting [1]) is 0.35 µM; in the experiment with SK-Br3 (ATCC: HTB-30), 0.012 µM.

Take `C=CC(=O)N1CCC(C(=O)Nc2ccc3ncnc(Nc4ccc(OCc5ccccn5)c(Cl)c4)c3c2)CC1` [Example 156, 1-acryloyl-piperidine-4-carboxylic acid {4-[3-chloro-4-(pyridin-2-ylmethoxy)-phenylamino]-quinazolin-6-yl}-amide]: the 50% inhibitory concentration (IC50) in the experiment with A431 (ATCC: CRL-1555) (setting [1]) was 0.513 µM; in the experiment on SK-Br3 (ATCC: HTB-30), 0.019 µM.

With `C=CC(=O)N1CCC[C@H]1C(=O)Nc1ccc2ncnc(Nc3ccc(Oc4ccc(C)nc4)c(C)c3)c2c1` [Example 157, (2S)-1-acryloyl-pyrrolidine-2-carboxylic acid {4-[3-methyl-4-(6-methyl-pyridin-3-yloxy)-phenylamino]-quinazolin-6-yl}-amide], the half-inhibitory concentration (IC50) was 5.59 µM in the experiment on A431 (ATCC: CRL-1555) (Homo sapiens, A-431, 72 h) and 0.123 µM in the experiment on SK-Br3 (ATCC: HTB-30).

Turning to `C#Cc1cccc(Nc2ncnc3ccc(NC(=O)[C@@H]4CCCN4C(=O)C=C)cc23)c1` [Example 158, (2S)-1-acryloyl-pyrrolidine-2-carboxylic acid [4-(3-ethynyl-phenylamino)-quinazolin-6-yl]-amide], the IC50 with A431 (ATCC: CRL-1555) (Homo sapiens, A-431, 72 h) worked out at 0.583 µM; with SK-Br3 (ATCC: HTB-30), 0.048 µM.

On to `C=CC(=O)N1CCC[C@H]1C(=O)Nc1ccc2ncnc(Nc3ccc(F)c(Cl)c3)c2c1` [Example 159, (2S)-1-acryloyl-pyrrolidine-2-carboxylic acid [4-(3-chloro-4-fluoro-phenylamino)-quinazolin-6-yl]-amide], for which the IC50 in the experiment on A431 (ATCC: CRL-1555) (Homo sapiens, A-431, 72 h) amounted to 0.462 µM; with SK-Br3 (ATCC: HTB-30), 0.223 µM.

Regarding `C=CC(=O)N1C[C@H](S(=O)(=O)CC)C[C@H]1C(=O)Nc1ccc2ncnc(Nc3ccc(OCc4ccccn4)c(Cl)c3)c2c1` [Example 160, (2S,4R)-1-acryloyl-4-ethanesulfonyl-pyrrolidine-2-carboxylic acid {4-[3-chloro-4-(pyridin-2-ylmethoxy)-phenylamino]-quinazolin-6-yl}-amide], the IC50 with A431 (ATCC: CRL-1555) (Homo sapiens, A-431, 72 h) worked out at 6.93 µM; in the experiment with SK-Br3 (ATCC: HTB-30), 0.437 µM.

Turning to `C=CC(=O)N1C[C@H](OC)C[C@H]1C(=O)Nc1ccc2ncnc(Nc3ccc(OCc4ccccn4)c(Cl)c3)c2c1` [Example 161, (2S,4R)-1-acryloyl-4-methoxy-pyrrolidine-2-carboxylic acid {4-[3-chloro-4-(pyridin-2-ylmethoxy)-phenylamino]-quinazolin-6-yl}-amide], the IC50 in the experiment on A431 (ATCC: CRL-1555) (Homo sapiens, A-431, 72 h) was 0.68 µM; in the experiment with SK-Br3 (ATCC: HTB-30), 0.019 µM.

Regarding `C=CC(=O)N1CCCC(C(=O)Nc2ccc3ncnc(Nc4ccc(OCc5ccccn5)c(Cl)c4)c3c2)C1` (stereo not shown) [Example 162, 1-acryloyl-piperidine-3-carboxylic acid {4-[3-chloro-4-(pyridin-2-ylmethoxy)-phenylamino]-quinazolin-6-yl}-amide], the IC50 with A431 (ATCC: CRL-1555) (setting [1]) amounted to 0.286 µM; in the experiment with SK-Br3 (ATCC: HTB-30), 0.028 µM.

With `C=CC(=O)N1CC(C(=O)Nc2ccc3ncnc(Nc4ccc(OCc5ccccn5)c(Cl)c4)c3c2)C1` [Example 163, 1-acryloyl-azetidine-3-carboxylic acid {4-[3-chloro-4-(pyridin-2-ylmethoxy)-phenylamino]-quinazolin-6-yl}-amide], the IC50 in the experiment on A431 (ATCC: CRL-1555) (setting [1]) came to 1.4 µM; in the experiment on SK-Br3 (ATCC: HTB-30), 0.06 µM.

In the case of `C=CC(=O)N1CCCCC1C(=O)Nc1ccc2ncnc(Nc3ccc(OCc4ccccn4)c(Cl)c3)c2c1` (stereo not shown) [Example 164, 1-acryloyl-piperidine-2-carboxylic acid {4-[3-chloro-4-(pyridin-2-ylmethoxy)-phenylamino]-quinazolin-6-yl}-amide], the IC50 in the experiment with A431 (ATCC: CRL-1555) (setting [1]) amounted to 0.105 µM; with SK-Br3 (ATCC: HTB-30), 0.012 µM.

As for `C=CC(=O)N1CCC[C@H]1C(=O)Nc1cc2c(Nc3ccc(OCc4ccccn4)c(Cl)c3)ncnc2cc1F` [Example 165, (2S)-1-acryloyl-pyrrolidine-2-carboxylic acid {4-[3-chloro-4-(pyridin-2-ylmethoxy)-phenylamino]-7-fluoro-quinazolin-6-yl}-amide], the IC50 with A431 (ATCC: CRL-1555) (Homo sapiens, A-431, 72 h) was determined as 0.215 µM; with SK-Br3 (ATCC: HTB-30) it was 0.005 µM.

`C=CC(=O)N1CCC[C@H]1C(=O)Nc1cc2c(Nc3ccc(OCc4ccccn4)c(C)c3)ncnc2cc1OC` [Example 168, (2S)-1-acryloyl-pyrrolidine-2-carboxylic acid {7-methoxy-4-[3-methyl-4-(pyridin-2-ylmethoxy)-phenylamino]-quinazolin-6-yl}-amide]: the IC50 was determined as 0.068 µM in the experiment on A431 (ATCC: CRL-1555) (Homo sapiens, A-431, 72 h) and 0.006 µM in the experiment with SK-Br3 (ATCC: HTB-30).

As to `C=CC(=O)N1CCCC1CC(=O)Nc1cc2c(Nc3ccc(OCc4ccccn4)c(Cl)c3)ncnc2cc1OC` (stereo not shown) [Example 169, 2-(1-acryloyl-pyrrolidin-2-yl)-N-{4-[3-chloro-4-(pyridin-2-ylmethoxy)-phenylamino]-7-methoxy-quinazolin-6-yl}-acetamide], the half-inhibitory concentration (IC50) stood at 0.079 µM in the experiment on A431 (ATCC: CRL-1555) (Homo sapiens, A-431, 72 h) and 0.024 µM in the experiment with SK-Br3 (ATCC: HTB-30).

For `C=CC(=O)N1CCC[C@H]1C(=O)Nc1cc2c(Nc3ccc(OCc4ccccn4)c(Cl)c3)ncnc2cc1OCC` [Example 170, (2S)-1-acryloyl-pyrrolidine-2-carboxylic acid {4-[3-chloro-4-(pyridin-2-ylmethoxy)-phenylamino]-7-ethoxy-quinazolin-6-yl}-amide], the IC50 with A431 (ATCC: CRL-1555) (Homo sapiens, A-431, 72 h) came to 0.199 µM; with SK-Br3 (ATCC: HTB-30), 0.002 µM.

As to `C=CC(=O)N1CCC[C@H]1C(=O)Nc1cc2c(Nc3ccc(OCc4ccccn4)c(Cl)c3)ncnc2cc1SCC` [Example 171, (2S)-1-acryloyl-pyrrolidine-2-carboxylic acid {4-[3-chloro-4-(pyridin-2-ylmethoxy)-phenylamino]-7-ethylsulfanyl-quinazolin-6-yl}-amide], the 50% inhibitory concentration (IC50) in the experiment on A431 (ATCC: CRL-1555) (Homo sapiens, A-431, 72 h) was 0.306 µM; in the experiment on SK-Br3 (ATCC: HTB-30), 0.031 µM.

`C=CC(=O)N1CCC[C@H]1C(=O)Nc1cc2c(Nc3ccc(OCc4ccccn4)c(Cl)c3)ncnc2cc1OCC1CC1` [Example 172, (2S)-1-acryloyl-pyrrolidine-2-carboxylic acid {4-[3-chloro-4-(pyridin-2-ylmethoxy)-phenylamino]-7-cyclopropylmethoxy-quinazolin-6-yl}-amide]: the IC50 was no less than 10 µM with A431 (ATCC: CRL-1555) (Homo sapiens, A-431, 72 h) and 4.52 µM with SK-Br3 (ATCC: HTB-30).
